Measured values published in PMC12772033, “A drought stress-responsive metabolite malate modulates stomatal responses through G-protein-dependent pathway in grapevine and Arabidopsis” (Molecular Horticulture, 2026).
Where a name gives a salt, the structure may show the parent alone.

Legend:
VvSLAC1 [1] = target: T1, VvSLAC1 (Vitis vinifera, UniProt A0ABY9BHH9, F440A); experiment: two-electrode voltage clamp, Xenopus oocytes; format: cell-based; conditions: activator of open-gate mutant
T1 construct: gene VitviT2T_002114; cDNA in pNB1u, cRNA expressed in Xenopus laevis oocytes; no tag mentioned; model trimmed 1-141 and 507-553

VvSLAC1 [2] = target: T1, VvSLAC1; experiment: two-electrode voltage clamp, ramp mode, Xenopus oocytes; format: cell-based; conditions: activator of open-gate mutant, pH 5.6, 1 mM LaCl3, ramp +60 to -120 mV
[3] = pH 5.6, 1 mM LaCl3, -120 mV gap-free and I-V steps

T1 sequence (A0ABY9BHH9 entry or part of it F440A): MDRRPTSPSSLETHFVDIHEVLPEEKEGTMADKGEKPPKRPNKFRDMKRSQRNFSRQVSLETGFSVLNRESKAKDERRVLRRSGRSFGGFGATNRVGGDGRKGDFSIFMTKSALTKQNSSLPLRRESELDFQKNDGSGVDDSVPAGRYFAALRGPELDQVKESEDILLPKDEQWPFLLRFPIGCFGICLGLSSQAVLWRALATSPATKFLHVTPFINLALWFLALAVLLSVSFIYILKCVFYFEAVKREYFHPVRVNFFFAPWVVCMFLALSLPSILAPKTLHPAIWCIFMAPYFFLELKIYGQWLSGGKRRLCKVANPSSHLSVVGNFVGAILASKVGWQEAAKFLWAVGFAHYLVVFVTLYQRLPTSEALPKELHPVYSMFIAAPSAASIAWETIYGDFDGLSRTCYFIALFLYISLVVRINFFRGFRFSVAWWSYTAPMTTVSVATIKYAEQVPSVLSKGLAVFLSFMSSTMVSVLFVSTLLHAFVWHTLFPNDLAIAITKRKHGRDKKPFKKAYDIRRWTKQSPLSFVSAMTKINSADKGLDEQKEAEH

O=C(O)C[C@H](O)C(=O)O [Mal, malate]
relative current at 10 mM (VvSLAC1 [1]; [3]): Dicarboxylates, however, promoted the activity of VvSLAC1F440A.

O=C(O)CC(=O)C(=O)O [Oxal, oxalacetate]
relative current at 10 mM (VvSLAC1 [1]; pH 5.6, 1 mM LaCl3, -120 mV gap-free): Dicarboxylates, however, promoted the activity of VvSLAC1F440A.

O=C(O)CC(O)(CC(=O)O)C(=O)O [Cit, citrate]
current at 10 mM (VvSLAC1 [2]): The metabolites other than monocarboxylates activated VvSLAC1F440A.

O=C(O)/C=C/C(=O)O [Fum, fumarate]
relative current at 10 mM (VvSLAC1 [1]; [3]): Dicarboxylates, however, promoted the activity of VvSLAC1F440A.
